ChEMBL document CHEMBL2069188, “Structural requirements for the antitubercular quaternized triflupromazine pharmacophore” (Bioorg Med Chem Lett, 2012)
In brackets after ≈: the same amount, converted by molar mass.

System: Mycobacterium tuberculosis
Assay: Antitubercular activity against highly drug-resistant, non replicating, persistent Mycobacterium tuberculosis harboring Vibrio harveyii luciferase gene incubated under anaerobic condition measured after 28 hrs of aerobic recovery by LORA method
Format: functional

SMILES | MIC90
C[N+](C)(CCCN1c2ccccc2Sc2ccc(C(F)(F)F)cc21)Cc1ccc(Br)cc1.[Br-] | 7.1 µM
C[N+](C)(CCCN1c2ccccc2Sc2ccc(C(F)(F)F)cc21)Cc1ccc(I)cc1.[Br-] | 7.2 µM
FC(F)(F)c1ccc2c(c1)N(Cc1cn(Cc3ccc(Cl)cc3)nn1)c1ccccc1S2 | > 100 µM
C[N+](C)(CCCN1c2ccccc2Sc2ccc(C(F)(F)F)cc21)Cc1ccc(F)cc1.[Cl-] | 14.3 µM
C[N+](C)(CCCN1c2ccccc2Sc2ccc(C(F)(F)F)cc21)Cc1ccc(Cl)cc1.[Cl-] | 7.8 µM
CO[C@H]1/C=C/O[C@@]2(C)Oc3c(C)c(O)c4c(O)c(c(/C=N/N5CCN(C)CC5)c(O)c4c3C2=O)NC(=O)/C(C)=C\C=C\[C@H](C)[C@H](O)[C@@H](C)[C@@H](O)[C@@H](C)[C@H](OC(C)=O)[C@@H]1C [RIFAMPIN] | 0.61 µM (≈ 0.502 µg/mL)
